# Activity calls are given as the source filed them. The calls are words filed in the database; no cut-off is given here.
# System: SH-SY5Y
# Test: Neuroprotective activity against TBHP-induced oxidative damage in human SH-SY5Y cells assessed as increase in cell viability at 10 uM pretreated for 24 hrs followed by TBHP stimulation measured after 4 hrs by MTT assay relative to control
# Assay type: functional, cell-based
# Settings: not given
row,Structure (SMILES),Activity
1,CS(=O)(=O)[O-].O=C(CCc1cc(O)c(O)c(O)c1)NCCCCCCCCCC[P+](c1ccccc1)(c1ccccc1)c1ccccc1,inactive
2,O=C(NCCCCCCCCCC[P+](c1ccccc1)(c1ccccc1)c1ccccc1)c1cc(O)c(O)c(O)c1,inactive
3,CS(=O)(=O)[O-].O=C(/C=C/c1ccc(O)c(O)c1)NCCCCCC[P+](c1ccccc1)(c1ccccc1)c1ccccc1,inactive

# System: not listed separately
# Test: Cytotoxicity against human SH-SY5Y cells assessed as cell metabolic activity at 50 uM incubated for 24 hrs by MTT assay relative to control
# Assay type: ADME, cell-based
# Settings: read-out: Activity
row,Structure (SMILES),"viability at 24 h, 50 µM [%]"
1,CS(=O)(=O)[O-].O=C(CCc1cc(O)c(O)c(O)c1)NCCCCCCCCCC[P+](c1ccccc1)(c1ccccc1)c1ccccc1,96.3
2,O=C(NCCCCCCCCCC[P+](c1ccccc1)(c1ccccc1)c1ccccc1)c1cc(O)c(O)c(O)c1,101
3,CS(=O)(=O)[O-].O=C(/C=C/c1ccc(O)c(O)c1)NCCCCCC[P+](c1ccccc1)(c1ccccc1)c1ccccc1,97.6

# System: not listed separately
# Test: Cytotoxicity against human HepG2 cells assessed as cell metabolic activity at 10 uM incubated for 48 hrs by resazurin assay relative to control
# Assay type: ADME, cell-based
# Settings: read-out: Activity
row,Structure (SMILES),"viability at 48 h, 10 µM [%]"
1,CS(=O)(=O)[O-].O=C(CCc1cc(O)c(O)c(O)c1)NCCCCCCCCCC[P+](c1ccccc1)(c1ccccc1)c1ccccc1,106
2,O=C(NCCCCCCCCCC[P+](c1ccccc1)(c1ccccc1)c1ccccc1)c1cc(O)c(O)c(O)c1,108
3,CS(=O)(=O)[O-].O=C(/C=C/c1ccc(O)c(O)c1)NCCCCCC[P+](c1ccccc1)(c1ccccc1)c1ccccc1,111

# System: not listed separately
# Test: Antioxidant activity assessed as DPPH radical scavenging activity measured after 45 mins by UV-Visible spectrophotometric based assay
# Assay type: functional
# Settings: not given
row,Structure (SMILES),IC50 [µM]
1,CS(=O)(=O)[O-].O=C(CCc1cc(O)c(O)c(O)c1)NCCCCCCCCCC[P+](c1ccccc1)(c1ccccc1)c1ccccc1,23.2
2,O=C(NCCCCCCCCCC[P+](c1ccccc1)(c1ccccc1)c1ccccc1)c1cc(O)c(O)c(O)c1,10.2
3,CS(=O)(=O)[O-].O=C(/C=C/c1ccc(O)c(O)c1)NCCCCCC[P+](c1ccccc1)(c1ccccc1)c1ccccc1,29.5

# System: not listed separately
# Test: Antioxidant activity assessed as ABTS radical scavenging activity measured after 15 mins by UV-Visible spectrophotometric based assay
# Assay type: functional
# Settings: not given
row,Structure (SMILES),IC50 [µM]
1,CS(=O)(=O)[O-].O=C(CCc1cc(O)c(O)c(O)c1)NCCCCCCCCCC[P+](c1ccccc1)(c1ccccc1)c1ccccc1,11.9
2,O=C(NCCCCCCCCCC[P+](c1ccccc1)(c1ccccc1)c1ccccc1)c1cc(O)c(O)c(O)c1,7.4
3,CS(=O)(=O)[O-].O=C(/C=C/c1ccc(O)c(O)c1)NCCCCCC[P+](c1ccccc1)(c1ccccc1)c1ccccc1,30.5

# System: not listed separately
# Test: Electrochemical behavior of the compound assessed as redox potential corrected toward saturated Ag/AgCl reference electrode by cyclic voltammetry
# Settings: not given
row,Structure (SMILES),Activity [mV]
1,CS(=O)(=O)[O-].O=C(CCc1cc(O)c(O)c(O)c1)NCCCCCCCCCC[P+](c1ccccc1)(c1ccccc1)c1ccccc1,12
2,O=C(NCCCCCCCCCC[P+](c1ccccc1)(c1ccccc1)c1ccccc1)c1cc(O)c(O)c(O)c1,114
3,CS(=O)(=O)[O-].O=C(/C=C/c1ccc(O)c(O)c1)NCCCCCC[P+](c1ccccc1)(c1ccccc1)c1ccccc1,164

# System: not listed separately
# Test: Electrochemical behavior of the compound assessed as redox potential corrected toward saturated Ag/AgCl reference electrode by differential pulse voltammetry
# Settings: not given
row,Structure (SMILES),Activity [mV]
1,CS(=O)(=O)[O-].O=C(CCc1cc(O)c(O)c(O)c1)NCCCCCCCCCC[P+](c1ccccc1)(c1ccccc1)c1ccccc1,537
2,O=C(NCCCCCCCCCC[P+](c1ccccc1)(c1ccccc1)c1ccccc1)c1cc(O)c(O)c(O)c1,725
3,CS(=O)(=O)[O-].O=C(/C=C/c1ccc(O)c(O)c1)NCCCCCC[P+](c1ccccc1)(c1ccccc1)c1ccccc1,164

# System: not listed separately
# Test: Metal chelating activity assessed as compound-Fe2+ complex formation at 100 uM incubated for 10 mins by ferrozine spectrophotometric assay
# Settings: not given
row,Structure (SMILES),Activity [%]
1,CS(=O)(=O)[O-].O=C(CCc1cc(O)c(O)c(O)c1)NCCCCCCCCCC[P+](c1ccccc1)(c1ccccc1)c1ccccc1,> 80
2,O=C(NCCCCCCCCCC[P+](c1ccccc1)(c1ccccc1)c1ccccc1)c1cc(O)c(O)c(O)c1,> 80
3,CS(=O)(=O)[O-].O=C(/C=C/c1ccc(O)c(O)c1)NCCCCCC[P+](c1ccccc1)(c1ccccc1)c1ccccc1,> 80

# System: not listed separately
# Test: Cytotoxicity against human SH-SY5Y cells assessed as cell metabolic activity at 10 uM incubated for 24 hrs by MTT assay relative to control
# Assay type: ADME, cell-based
# Settings: read-out: Activity
row,Structure (SMILES),"viability at 24 h, 10 µM [%]"
1,CS(=O)(=O)[O-].O=C(CCc1cc(O)c(O)c(O)c1)NCCCCCCCCCC[P+](c1ccccc1)(c1ccccc1)c1ccccc1,92.8
2,O=C(NCCCCCCCCCC[P+](c1ccccc1)(c1ccccc1)c1ccccc1)c1cc(O)c(O)c(O)c1,107
3,CS(=O)(=O)[O-].O=C(/C=C/c1ccc(O)c(O)c1)NCCCCCC[P+](c1ccccc1)(c1ccccc1)c1ccccc1,103

# System: not listed separately
# Test: Cytotoxicity against human HepG2 cells assessed as cell metabolic activity at 50 uM incubated for 48 hrs by resazurin assay relative to control
# Assay type: ADME, cell-based
# Settings: read-out: Activity
row,Structure (SMILES),"viability at 48 h, 50 µM [%]"
1,CS(=O)(=O)[O-].O=C(CCc1cc(O)c(O)c(O)c1)NCCCCCCCCCC[P+](c1ccccc1)(c1ccccc1)c1ccccc1,108
2,O=C(NCCCCCCCCCC[P+](c1ccccc1)(c1ccccc1)c1ccccc1)c1cc(O)c(O)c(O)c1,108
3,CS(=O)(=O)[O-].O=C(/C=C/c1ccc(O)c(O)c1)NCCCCCC[P+](c1ccccc1)(c1ccccc1)c1ccccc1,112

# System: SH-SY5Y
# Test: Induction of ROS generation in human SH-SY5Y cells at 50 uM incubated for 24 hrs by DCFH-DA probe based fluorescence assay relative to control
# Assay type: functional
# Settings: not given
row,Structure (SMILES),Activity
1,CS(=O)(=O)[O-].O=C(CCc1cc(O)c(O)c(O)c1)NCCCCCCCCCC[P+](c1ccccc1)(c1ccccc1)c1ccccc1,Active
2,O=C(NCCCCCCCCCC[P+](c1ccccc1)(c1ccccc1)c1ccccc1)c1cc(O)c(O)c(O)c1,Active

# System: SH-SY5Y
# Test: Neuroprotective activity against 6-OHDA-induced toxicity in human SH-SY5Y cells assessed as reduction in cell damage at 10 to 50 uM pretreated for 24 hrs followed by 6-OHDA challenge and measured after 24 hrs by MTT assay relative to control
# Assay type: functional
# Design: scale not given: the % may be the effect or the level left
# Settings: not given
row,Structure (SMILES),Activity
1,CS(=O)(=O)[O-].O=C(CCc1cc(O)c(O)c(O)c1)NCCCCCCCCCC[P+](c1ccccc1)(c1ccccc1)c1ccccc1,66.5 - 70.2%
2,O=C(NCCCCCCCCCC[P+](c1ccccc1)(c1ccccc1)c1ccccc1)c1cc(O)c(O)c(O)c1,inactive
3,CS(=O)(=O)[O-].O=C(/C=C/c1ccc(O)c(O)c1)NCCCCCC[P+](c1ccccc1)(c1ccccc1)c1ccccc1,inactive

# System: SH-SY5Y
# Test: Neuroprotective activity against H2O2-induced oxidative damage in human SH-SY5Y cells assessed as reduction in cell damage at 10 uM pretreated for 24 hrs followed by H2O2 challenge measured after 30 mins by MTT assay relative to control
# Assay type: functional
# Design: scale not given: the % may be the effect or the level left
# Settings: not given
row,Structure (SMILES),Activity
1,CS(=O)(=O)[O-].O=C(CCc1cc(O)c(O)c(O)c1)NCCCCCCCCCC[P+](c1ccccc1)(c1ccccc1)c1ccccc1,70.8 - 83.3%
2,O=C(NCCCCCCCCCC[P+](c1ccccc1)(c1ccccc1)c1ccccc1)c1cc(O)c(O)c(O)c1,70.8 - 83.3%
3,CS(=O)(=O)[O-].O=C(/C=C/c1ccc(O)c(O)c1)NCCCCCC[P+](c1ccccc1)(c1ccccc1)c1ccccc1,70.8 - 83.3%

# System: SH-SY5Y
# Test: Neuroprotective activity against H2O2-induced oxidative damage in human SH-SY5Y cells assessed as reduction in cell damage at 50 uM pretreated for 24 hrs followed by H2O2 challenge measured after 30 mins by MTT assay relative to control
# Assay type: functional
# Design: scale not given: the % may be the effect or the level left
# Settings: not given
row,Structure (SMILES),Activity
1,CS(=O)(=O)[O-].O=C(CCc1cc(O)c(O)c(O)c1)NCCCCCCCCCC[P+](c1ccccc1)(c1ccccc1)c1ccccc1,70.8 - 83.3%
2,O=C(NCCCCCCCCCC[P+](c1ccccc1)(c1ccccc1)c1ccccc1)c1cc(O)c(O)c(O)c1,70.8 - 83.3%
3,CS(=O)(=O)[O-].O=C(/C=C/c1ccc(O)c(O)c1)NCCCCCC[P+](c1ccccc1)(c1ccccc1)c1ccccc1,70.8 - 83.3%

# System: SH-SY5Y
# Test: Neuroprotective activity against TBHP-induced oxidative damage in human SH-SY5Y cells assessed as increase in cell viability at 50 uM pretreated for 24 hrs followed by TBHP stimulation measured after 4 hrs by MTT assay relative to control
# Assay type: functional
# Settings: not given
row,Structure (SMILES),Activity
1,CS(=O)(=O)[O-].O=C(CCc1cc(O)c(O)c(O)c1)NCCCCCCCCCC[P+](c1ccccc1)(c1ccccc1)c1ccccc1,inactive
2,O=C(NCCCCCCCCCC[P+](c1ccccc1)(c1ccccc1)c1ccccc1)c1cc(O)c(O)c(O)c1,inactive
3,CS(=O)(=O)[O-].O=C(/C=C/c1ccc(O)c(O)c1)NCCCCCC[P+](c1ccccc1)(c1ccccc1)c1ccccc1,inactive

# System: not listed separately
# Test: Cytotoxicity against human CMEC/D3 cells assessed as reduction in cell viability at 50 to 100 uM incubated for 4 hrs by MTT assay relative to control
# Assay type: cell-based
# Settings: hcmec/d3, 4 h
row,Structure (SMILES),Activity
1,CS(=O)(=O)[O-].O=C(CCc1cc(O)c(O)c(O)c1)NCCCCCCCCCC[P+](c1ccccc1)(c1ccccc1)c1ccccc1,Non-Toxic

# System: not listed separately
# Test: Apparent permeability across apical to basolateral side in human CMEC/D3 cells at 100 uM incubated up to 180 mins by UV-VIS spectroscopic method
# Assay type: ADME, cell-based
# Settings: hcmec/d3, 3 h
row,Structure (SMILES),permeability [%]
1,CS(=O)(=O)[O-].O=C(CCc1cc(O)c(O)c(O)c1)NCCCCCCCCCC[P+](c1ccccc1)(c1ccccc1)c1ccccc1,33.1

# System: not listed separately
# Test: Apparent permeability across apical to basolateral side in human CMEC/D3 cells at 100 uM incubated by UV-VIS spectroscopic method
# Assay type: ADME, cell-based
# Settings: hcmec/d3, 100 µM, TDE = time-dependent effect
row,Structure (SMILES),permeability
1,CS(=O)(=O)[O-].O=C(CCc1cc(O)c(O)c(O)c1)NCCCCCCCCCC[P+](c1ccccc1)(c1ccccc1)c1ccccc1,Tde
